According to patent publication US20220396819A1, “METHOD FOR PRODUCING PEPTIDE HAVING PHYSIOLOGICAL ACTIVITY, AND PEPTIDE COMPRISING SHORT LINKER” (priority 2019, published 2022):
Positions of bridges follow the written chain, without caps; N, C: chain ends. No end group written: not given here.

Legend:
Format in all cases: cell-based
HuCCT1 cells [1] = test: Wound healing effect, scratch in HuCCT1 cell culture; details: 33 ng/mL HGF or 100 ng/mL peptide, N=4, FIG. 16
Procedure: HGF has been reported to promote cell wound healing ability by activating Met (K. Ito, et al. Nat. Commun. 6, 6373, 2015). Therefore, HuCCT1 cell culture was used to evaluate whether the HGF-PAS dimer peptide would promote wound healing as HGF.
To 96-well cell culture plates, 50,000 HuCCT1 cells suspended in RPMI 1640 medium with 10% FBS were added per well and incubated overnight under the conditions of 37° C. and 5% CO2. Cells in the center of the culture wells were scraped using a 1000 μL Thermo Scientific ART chip (Thermo Fisher Scientific) and washed with low serum medium (RPMI 1640 medium with 0.5% FBS). Low serum medium containing 33 ng/mL HGF or 100 ng/mL AET-PAS-aMD4dY-PEG11 was added, and the cells were cultured under the conditions of 37° C. and 5% CO2. BioStudio-T (Nikon Corporation) was used for cell observation, and cells were automatically photographed every hour. The rate of wound healing (μm/h) was calculated as ((wound width 1 hour after wound creation)−(wound width 7 hours after wound creation))/6 (N=4).

[2] = tested on: receptor tyrosine kinase (RTK); test: RTK specificity, Proteome Profiler Human Phospho-RTK Array Kit, HEK293E cells; details: 200 ng/mL peptide or 100 ng/mL HGF, 10 minutes, FIG. 10
Procedure: The receptor tyrosine kinase (RTK) specificity of the HGF-PAS dimer peptide was evaluated using Proteome Profiler Human Phospho-RTK Array Kit (R&D Systems).
HEK293E cells confluent in a 10 cm cell culture dish were starved by culturing for 24 hours in D-MEM medium containing 0.5% FBS (Thermo Fisher Scientific) and penicillin-streptomycin (Nacalai Tesque). The starved HEK293E cells were stimulated with 200 ng/mL AET-PAS-aMD4dY-PEG11 for 10 minutes. As a positive control, 100 ng/mL HGF was similarly stimulated for 10 minutes. As a negative control, PBS was added and stimulated for 10 minutes (Mock group). After removing the medium and washing the cells once with PBS, the cells were lysed by adding 1 mL of Lysis buffer 17 containing a Protease inhibitor cocktail (Nacalai Tesque). The lysate solution was centrifuged at 14,000 G for 5 minutes to obtain the supernatant as a lysate.
The lysate was analyzed using Proteome Profiler Human Phospho-RTK Array Kit. Molecular Imager ChemiDoc XRS System (Bio-Rad) was used to detect chemiluminescence.

HuCCT1 cells [3] = test: Cell proliferation promoting activity in HuCCT1 cell culture; details: HGF 35 ng/mL or peptide 40 ng/mL, 5 days, N=3, FIG. 12
Procedure: HGF has been reported to promote cell proliferation by activating Met (K. Ito, et al. Nat. Commun. 6, 6373, 2015). Therefore, HuCCT1 cell culture was used to evaluate whether the HGF-PAS dimer peptide had the same activity of promoting cell proliferation as HGF.
RPMI 1640 medium (Nacalai Tesque) containing 5% FBS was added to a 24-well cell culture plate, and HuCCT1 cells were seeded at 5,000 cell/well. HGF at 35 ng/mL or AET-PAS-aMD4dY-PEG11 at 40 ng/mL was added, and the cells were cultured at 37° C. and 5% CO2 for 5 days. The cells were detached with 0.25% Trypsin/EDTA (Thermo Fisher Scientific) and the number of cells was quantified with Countess Automated Cell Counter (Thermo Fisher Scientific) (N=3).

HuCCT1 cells [4] = test: Cell migration activity, Transwell, HuCCT1 cells; details: 100 ng/mL HGF or 200 ng/mL peptide, 24 hours, FIGS. 13, 14
Procedure: HGF has been reported to promote cell migration ability by activating Met (K. Ito, et al. Nat. Commun. 6, 6373, 2015). Therefore, HuCCT1 cell culture was used to evaluate whether the HGF-PAS dimer peptide had the same activity of promoting cell migration as HGF.
To Transwell inserts for 24-well (pore size 3.0 m, Corning), 20,000 HuCCT1 cells suspended in low serum medium (RPMI 1640 medium with 0.5% FBS) were added. A low serum medium containing 100 ng/mL HGF or 200 ng/mL AET-PAS-aMD4dY-PEG11 was added to the lower layer. After culturing for 24 hours under the conditions of 37° C. and 5% CO2, the Transwell inserts were washed 3 times with PBS and cell-fixed and stained with methanol containing 0.5% Crystal Violet (Nacalai Tesque) for 10 minutes. Immobilized and stained Transwell inserts were washed with distilled water. The cells inside the inserts were removed with a scraper. The cells migrated to the outside of the inserts and stained were photographed in the bright field observation mode of a BZ-X microscope (Keyence).
The migration ability was calculated as (area of stained region)/(insert area) and as a relative value (Relative migration efficiency) to the value of the non-added group (Mock) (N=2).

Substance	improvement of the rate of wound healing (HuCCT1 cells [1])	RTK phosphorylation (specificity) [2]	proliferation ability relative to the non-added group (Mock) (HuCCT1 cells [3])	cell migration (HuCCT1 cells [4])
AETCRQFNRRTHEVWNLDCGAAPAAPAPAAPAAPAPAAPAAPGCRQFNRRTHEVWNLDC (disulfide 4-19, 44-59; also: PEG11) [AET-PAS-aMD4dY-PEG11]	about 1.6 times	Met was specifically phosphorylated	about 2.5 times	promoted cell migration
HGF: recombinant human HGF (rhHGF, R&D Systems)	about 1.6 times	Met was specifically phosphorylated	about 2.5 times	proportion of the cells migrating to the lower part of the Transwell inserts increased
